Measured values from US20240109887A1 (Viva Star Biosciences (Suzhou) Co., Ltd., priority 2021, published 2024).

How the values were obtained:
KRAS G12C/SOS1 = biological target: T1, KRAS G12C/SOS1 (Homo sapiens, UniProt Q07889); assay: biochemical
T1 sequence (Q07889 1-1333): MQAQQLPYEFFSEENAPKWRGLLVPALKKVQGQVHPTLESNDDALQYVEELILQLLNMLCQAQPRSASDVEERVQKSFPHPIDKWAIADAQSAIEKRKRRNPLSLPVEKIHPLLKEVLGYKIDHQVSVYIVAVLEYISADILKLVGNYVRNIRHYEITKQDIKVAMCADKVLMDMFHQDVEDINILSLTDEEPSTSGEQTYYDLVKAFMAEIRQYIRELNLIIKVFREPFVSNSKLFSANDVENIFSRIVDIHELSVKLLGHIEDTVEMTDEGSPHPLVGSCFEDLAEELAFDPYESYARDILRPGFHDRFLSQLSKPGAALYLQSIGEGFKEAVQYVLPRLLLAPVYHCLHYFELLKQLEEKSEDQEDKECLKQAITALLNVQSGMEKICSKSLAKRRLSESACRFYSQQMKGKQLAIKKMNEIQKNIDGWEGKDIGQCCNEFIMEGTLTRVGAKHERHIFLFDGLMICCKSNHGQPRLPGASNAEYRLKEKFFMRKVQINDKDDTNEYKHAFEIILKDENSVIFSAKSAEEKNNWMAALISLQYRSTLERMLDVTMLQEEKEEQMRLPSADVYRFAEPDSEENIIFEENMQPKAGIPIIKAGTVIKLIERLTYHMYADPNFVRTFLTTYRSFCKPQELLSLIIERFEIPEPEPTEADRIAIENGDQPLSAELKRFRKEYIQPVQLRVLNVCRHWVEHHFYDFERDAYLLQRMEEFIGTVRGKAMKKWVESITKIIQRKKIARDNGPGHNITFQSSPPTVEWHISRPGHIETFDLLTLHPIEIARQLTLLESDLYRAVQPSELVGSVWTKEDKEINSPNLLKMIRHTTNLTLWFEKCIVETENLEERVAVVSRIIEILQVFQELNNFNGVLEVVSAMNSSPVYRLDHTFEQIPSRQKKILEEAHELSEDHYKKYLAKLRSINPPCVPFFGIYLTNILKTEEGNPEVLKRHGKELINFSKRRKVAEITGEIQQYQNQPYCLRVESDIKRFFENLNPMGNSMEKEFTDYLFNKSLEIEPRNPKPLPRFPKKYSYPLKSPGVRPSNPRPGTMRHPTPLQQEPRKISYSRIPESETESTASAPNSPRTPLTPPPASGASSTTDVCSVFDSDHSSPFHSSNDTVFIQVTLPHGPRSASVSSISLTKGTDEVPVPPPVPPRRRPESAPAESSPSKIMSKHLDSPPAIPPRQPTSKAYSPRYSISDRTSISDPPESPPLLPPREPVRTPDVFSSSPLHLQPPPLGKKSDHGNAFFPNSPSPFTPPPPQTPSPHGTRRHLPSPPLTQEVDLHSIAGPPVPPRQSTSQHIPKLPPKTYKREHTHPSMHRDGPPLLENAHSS

KRAS G12D/SOS1 [1] = biological target: T2, KRAS G12D/SOS1 (Homo sapiens, UniProt Q07889); assay: biochemical
T2 sequence (Q07889 1-1333): T1 sequence (Q07889 1-1333)

KRAS-WT/SOS1 [2] = biological target: T3, KRAS-WT/SOS1 (Homo sapiens, UniProt Q07889); assay: biochemical
T3 sequence (Q07889 1-1333): T1 sequence (Q07889 1-1333)

KRAS G12D/SOS1 [3] = biological target: T2, KRAS G12D/SOS1; assay: KRAS G12D/SOS1 binding assay (HTRF); conditions: Tag2-KRAS G12D with Tag1-SOS1, 10 μM GTP
KRAS-WT/SOS1 [4] = biological target: T3, KRAS-WT/SOS1; assay: KRAS-WT/SOS1 binding assay (HTRF); conditions: Tag2-KRAS-WT with Tag1-SOS1, 10 μM GTP

| Compound | IC50 (KRAS G12C/SOS1) [nM] | IC50 (KRAS G12D/SOS1 [1]) [nM] | IC50 (KRAS-WT/SOS1 [2]) [nM] | also measured |
| --- | --- | --- | --- | --- |
| C[C@@H](NC(=O)c1cn(C2CCOCC2)c(=O)c2c[nH]nc12)c1cccc(C(F)(F)CO)c1 [Example 1, (R)—N-(1-(3-(1,1-difluoro-2-hydroxyethyl)phenyl)ethyl)-4-oxo-5-(tetrahydro-2H-pyran-4-yl)-4,5-dihydro-2H-pyrazolo[4,3-c]pyridine-7-carboxamide] | < 100 | < 100 | – | – |
| C[C@@H](NC(=O)c1cn(C2CCOCC2)c(=O)c2c[nH]nc12)c1cccc(C(F)F)c1F [Example 3, (R)-N-(1-(3-(difluoromethyl)-2-fluorophenyl)ethyl)-4-oxo-5-(tetrahydro-2H-pyran-4-yl)-4,5-dihydro-2H-pyrazolo[4,3-c]pyridine-7-carboxamide] | < 100 | < 100 | < 100 | – |
| C[C@@H](NC(=O)c1cn(C2(C)CC2)c(=O)c2cn[nH]c12)c1cccc(C(F)(F)F)n1 [Example 8, (R)-5-(1-methylcyclopropyl)-4-oxo-N-(1-(6-(trifluoromethyl)pyridin-2-yl)ethyl)-4,5-dihydro-1H-pyrazolo[4,3-c]pyridine-7-carboxamide] | – | – | – | Activity Data in Kras: SOS1 Assay, G12D (KRAS G12D/SOS1 [3]): C (C: 500~5 μM); Activity Data in Kras: SOS1 Assay, Wild Type (KRAS-WT/SOS1 [4]): C (C: 500~5 μM) |
| C[C@@H](NC(=O)c1cn([C@H]2CC[C@@H](C(=O)N(C)CCO)CC2)c(=O)c2c[nH]nc12)c1cccc2c1CCC2(F)F [Example 11, N—((R)-1-(1,1-difluoro-2,3-dihydro-1H-inden-4-yl)ethyl)-5-((1s,4S)-4-((2-hydroxyethyl)(methyl)carbamoyl)cyclohexyl)-4-oxo-4,5-dihydro-2H-pyrazolo[4,3-c]pyridine-7-carboxamide] | – | – | – | Activity Data in Kras: SOS1 Assay, G12D (KRAS G12D/SOS1 [3]): C (C: 500~5 μM); Activity Data in Kras: SOS1 Assay, Wild Type (KRAS-WT/SOS1 [4]): C (C: 500~5 μM) |
| COc1c(C2CCOCC2)cc(C(=O)N[C@H](C)c2cccc3c2CCC3(F)F)c2n[nH]cc12 [Example 16, N-[(1R)-1-(1,1-difluoro-2,3-dihydro-1H-inden-4-yl)ethyl]-4-methoxy-5-(oxan-4-yl)-2H-indazole-7-carboxamide] | 100 to 500 | – | – | – |
| COc1c(-c2ccc(=O)n(C)c2)cc(C(=O)N[C@H](C)c2cccc3c2CCC3(F)F)c2n[nH]cc12 [Example 17, N-[(1R)-1-(1,1-difluoro-2,3-dihydro-1H-inden-4-yl)ethyl]-4-methoxy-5-(1-methyl-6-oxo-1,6-dihydropyridin-3-yl)-2H-indazole-7-carboxamide] | < 100 | – | – | – |
| Cc1nc(N[C@H](C)c2cccc(C(F)(F)CO)c2)c2c(n1)N(C)C(=O)N(C1CCOCC1)C2 [Example 25, (R)-5-((1-(3-(1,1-difluoro-2-hydroxyethyl)phenyl)ethyl)amino)-1,7-dimethyl-3-(tetrahydro-2H-pyran-4-yl)-3,4-dihydropyrimido[4,5-d]pyrimidin-2(1H)-one] | 100 to 500 | – | 100 to 500 | – |
| Cc1nc(N[C@H](C)c2cccc3c2CCC3(F)F)c2c(n1)N(C)C(=O)N(C1CCOCC1)C2 [Example 26, (R)-5-((1-(1,1-difluoro-2,3-dihydro-1H-inden-4-yl)ethyl)amino)-1,7-dimethyl-3-(tetrahydro-2H-pyran-4-yl)-3,4-dihydropyrimido[4,5-d]pyrimidin-2(1H)-one] | 100 to 500 | – | – | – |
| COc1c(OC2CC(F)(F)C2)cc(C(=O)N[C@H](C)c2cccc3c2CCC3(F)F)c2n[nH]cc12 [Example 31, (R)-N-(1-(1,1-difluoro-2,3-dihydro-1H-inden-4-yl)ethyl)-5-(3,3-difluorocyclobutoxy)-4-methoxy-2H-indazole-7-carboxamide] | – | – | – | Activity Data in Kras: SOS1 Assay, G12D (KRAS G12D/SOS1 [3]): C (C: 500~5 μM); Activity Data in Kras: SOS1 Assay, Wild Type (KRAS-WT/SOS1 [4]): C (C: 500~5 μM) |
| COc1c(C2CCNCC2)cc(C(=O)N[C@H](C)c2cccc(C(F)(F)CO)c2)c2[nH]ncc12 [Example 35, N-[(1R)-1-[3-(1,1-difluoro-2-hydroxyethyl)phenyl]ethyl]-4-methoxy-5-(piperidin-4-yl)-1H-indazole-7-carboxamide] | – | < 100 | < 100 | – |
| COc1c(C2CCCNC2)cc(C(=O)N[C@H](C)c2cccc(C(F)(F)CO)c2)c2[nH]ncc12 (stereo partly drawn) [Example 36, N—((R)-1-(3-(1,1-difluoro-2-hydroxyethyl)phenyl)ethyl)-4-methoxy-5-(piperidin-3-yl)-1H-indazole-7-carboxamide] | – | < 100 | < 100 | – |
| COc1c(C2CCCN(C)C2)cc(C(=O)N[C@H](C)c2cccc(C(F)(F)CO)c2)c2[nH]ncc12 (stereo partly drawn) [Example 37, N—((R)-1-(3-(1,1-difluoro-2-hydroxyethyl)phenyl)ethyl)-4-methoxy-5-(1-methylpiperidin-3-yl)-1H-indazole-7-carboxamide] | – | < 100 | < 100 | – |
| C[C@@H](NC(=O)c1cn(C2CCOCC2)c(=O)c2cc[nH]c12)c1cccc2c1CCC2(F)F [Example 38, (R)—N-(1-(1,1-difluoro-2,3-dihydro-1H-inden-4-yl)ethyl)-4-oxo-5-(tetrahydro-2H-pyran-4-yl)-4,5-dihydro-1H-pyrrolo[3,2-c]pyridine-7-carboxamide] | < 100 | – | – | – |
| C[C@@H](NC(=O)c1cn(C2CCOCC2)c(=O)c2cc[nH]c12)c1cccc(C(F)(F)CO)c1 [Example 39, (R)—N-(1-(3-(1,1-difluoro-2-hydroxyethyl)phenyl)ethyl)-4-oxo-5-(tetrahydro-2H-pyran-4-yl)-4,5-dihydro-1H-pyrrolo[3,2-c]pyridine-7-carboxamide] | < 100 | – | – | – |
| C[C@@H](NC(=O)c1cn(C2CCOCC2)c(=O)c2cc[nH]c12)c1cccc(C(F)F)c1F [Example 40, (R)—N-(1-(3-(difluoromethyl)-2-fluorophenyl)ethyl)-4-oxo-5-(tetrahydro-2H-pyran-4-yl)-4,5-dihydro-1H-pyrrolo[3,2-c]pyridine-7-carboxamide] | < 100 | – | – | – |
| C[C@@H](NC(=O)c1cn(C2(C)CC2)c(=O)c2cc[nH]c12)c1cccc2c1CCC2(F)F [Example 41, (R)—N-(1-(1,1-difluoro-2,3-dihydro-1H-inden-4-yl)ethyl)-5-(1-methylcyclopropyl)-4-oxo-4,5-dihydro-1H-pyrrolo[3,2-c]pyridine-7-carboxamide] | – | < 100 | < 100 | – |
| C[C@@H](NC(=O)c1cn(C2(C)CC2)c(=O)c2cc[nH]c12)c1cccc(C(F)(F)CO)c1 [Example 42, (R)—N-(1-(3-(1,1-difluoro-2-hydroxyethyl)phenyl)ethyl)-5-(1-methylcyclopropyl)-4-oxo-4,5-dihydro-1H-pyrrolo[3,2-c]pyridine-7-carboxamide] | – | < 100 | < 100 | – |
| COc1c(N2CCOCC2)nc(C(=O)N[C@H](C)c2cccc3c2CCC3(F)F)c2n[nH]cc12 [Example 44, (R)—N-(1-(1,1-difluoro-2,3-dihydro-1H-inden-4-yl)ethyl)-4-methoxy-5-morpholino-2H-pyrazolo[3,4-c]pyridine-7-carboxamide] | – | – | – | Activity Data in Kras: SOS1 Assay, G12D (KRAS G12D/SOS1 [3]): C (C: 500~5 μM); Activity Data in Kras: SOS1 Assay, Wild Type (KRAS-WT/SOS1 [4]): C (C: 500~5 μM) |
